From patent publication US7846925B2, “Azolidinone-vinyl fused-benzene derivatives” (Merck Serono SA, priority 2002, dated 2010)

Key:
[1] = system: C5a-mediated AKT phosphorylation; test: Cell based ELISA: Akt/PKB phosphorylation in Raw 264-7 macrophages after stimulation with C5a; conditions: Mus musculus, RAW264.7, compound at 1 μM, 50 nM C5a, read-out: percentage of inhibition of C5a-mediated AKT phosphorylation
Description: b) Cell Based ELISA to Monitor PI3K Inhibition:
Measurement of Akt/PKB phosphorylation in macrophages after stimulation with C5a: Raw 264: Raw 264-7 macrophages (cultured in DMEM-F12 medium containing 10% Fetal Calf serum and antibiotics) are plated at 20'000 cells/well in a 96 MTP 24 h before cell stimulation. Previous to the stimulation with 50 nM of Complement 5a (C5a; which is a well known chemokine which stimulates the used cells) during 5 minutes, Cells are serum starved for 2 h, and pretreated with inhibitors for 20 minutes. After stimulation cells are fixed in 4% formaldehyde for 20 minutes and washed 3 times in PBS containing 1% Triton X-100 (PBS/Triton). Endogenous peroxidase is blocked by a 20 minutes incubation in 0.6% H2O2 and 0.1% Sodium Azide in PBS/Triton and washed 3 times in PBS/Triton. Cells are then blocked by 60 minutes incubation with 10% fetal calf serum in PBS/Triton. Next, phosphorylated Atk/PKB is detected by an overnight incubation at 4° C. with first antibody (anti phospho Serine 473 Akt 1HC, Cell Signaling) diluted 800-fold in PBS/Triton, containing 5% bovine serum albumin (BSA). After 3 washes in PBS/Triton, cells are incubated for 60 minutes with a peroxidase conjugated goat-anti-rabbit antibody (1/400 dilution in PBS/Triton, containing 5% BSA), washed 3 times in PBS/Triton, and 2 times in PBS and further incubated in 100 μl of substrate reagent solution (R&D) for 20 minutes.
The reaction is stopped by addition of 50 μl of 1 M H2SO4 and absorbance is read at 450 nm.
The values indicated reflect the percentage of inhibition of AKT phosphorylation as compared to basal level. Said values show a clear effect of the azolidinone-vinyl fused-benzene compounds on the activation of AKT phosphorylation in macrophages.

[2] = target: Human recombinant GST-PI3Kγ (Homo sapiens, UniProt P48736); test: High Throughput PI3K Lipid Kinase Assay (scintillation proximity assay); format: biochemical
Sequence of Human recombinant GST-PI3Kγ (P48736 whole entry): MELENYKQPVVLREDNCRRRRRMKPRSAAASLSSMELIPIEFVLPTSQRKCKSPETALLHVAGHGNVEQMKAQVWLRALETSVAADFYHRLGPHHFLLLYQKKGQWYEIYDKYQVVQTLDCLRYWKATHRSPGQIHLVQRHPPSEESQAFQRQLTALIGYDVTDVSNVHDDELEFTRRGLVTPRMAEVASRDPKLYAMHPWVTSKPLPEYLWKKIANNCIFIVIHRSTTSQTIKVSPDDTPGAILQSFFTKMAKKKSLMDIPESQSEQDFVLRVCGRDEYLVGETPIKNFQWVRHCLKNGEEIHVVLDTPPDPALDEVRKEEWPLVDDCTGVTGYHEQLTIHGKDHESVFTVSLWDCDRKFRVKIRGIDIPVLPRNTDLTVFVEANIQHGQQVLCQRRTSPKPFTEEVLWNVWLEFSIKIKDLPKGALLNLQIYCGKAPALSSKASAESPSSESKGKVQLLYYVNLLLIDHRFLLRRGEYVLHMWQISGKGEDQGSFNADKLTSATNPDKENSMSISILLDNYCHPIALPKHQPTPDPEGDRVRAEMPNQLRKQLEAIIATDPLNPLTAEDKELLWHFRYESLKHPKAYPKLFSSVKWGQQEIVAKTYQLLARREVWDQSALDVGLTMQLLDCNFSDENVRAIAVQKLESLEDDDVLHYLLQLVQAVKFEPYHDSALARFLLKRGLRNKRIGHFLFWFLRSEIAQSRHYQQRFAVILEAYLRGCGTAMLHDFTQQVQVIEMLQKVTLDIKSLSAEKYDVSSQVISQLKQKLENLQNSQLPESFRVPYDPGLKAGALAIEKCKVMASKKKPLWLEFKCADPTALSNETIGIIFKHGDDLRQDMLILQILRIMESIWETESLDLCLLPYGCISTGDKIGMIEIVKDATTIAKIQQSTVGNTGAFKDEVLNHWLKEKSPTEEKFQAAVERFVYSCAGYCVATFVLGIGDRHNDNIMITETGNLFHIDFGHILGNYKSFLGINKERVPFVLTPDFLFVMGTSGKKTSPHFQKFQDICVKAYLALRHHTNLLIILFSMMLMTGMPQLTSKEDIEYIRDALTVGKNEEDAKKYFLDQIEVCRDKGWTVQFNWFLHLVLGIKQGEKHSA
Description: a) High Throughput PI3K Lipid Kinase Assay (Binding Assay):
The assay combines the scintillation proximity assay technology (SPA, Amersham) with the capacity of neomycin (a polycationic antibiotic) to bind phospholipids with high affinity and specificity. The Scintillation Proximity Assay is based on the properties of weakly emitting isotopes (such as ^3H, ^125I, ^33P). Coating SPA beads with neomycin allows the detection of phosphorylated lipid substrates after incubation with recombinant PI3K and radioactive ATP in the same well, by capturing the radioactive phospholipids to the SPA beads through their specific binding to neomycin.
To a 384 wells MTP containing 5 μl of the test compound of formula (I) (solubilized in 6% DMSO; to yield a concentration of 100, 30, 10, 3, 1, 0.3, 0.1, 0.03, 0.01, 0.001 μM of the test compound), the following assay components are added. 1) 5 μl (58 ng) of Human recombinant GST-PI3Kγ (in Hepes 40 mM, pH 7.4, DTT 1 mM and ethyleneglycol 5%) 2) 10 μl of lipid micelles and 3) 10 μl of Kinase buffer ([^33P]γATP 45 μM/60 nCi, MgCl2 30 mM, DTT 1 mM, β-Glycerophosphate 1 mM, Na3VO4 100 μM, Na Cholate 0.3%, in Hepes 40 mM, pH 7.4). After incubation at room temperature for 180 minutes, with gentle agitation, the reaction is stopped by addition of 60 μl of a solution containing 100 μg of neomycin-coated PVT SPA beads in PBS containing ATP 10 mM and EDTA 5 mM. The assay is further incubated at room temperature for 60 minutes with gentle agitation to allow binding of phospholipids to neomycin-SPA beads. After precipitation of the neomycin-coated PVT SPA beads for 5 minutes at 1500×g, radioactive PtdIns(3)P is quantified by scintillation counting in a Wallac MicroBeta™ plate counter.
The values indicated in respect of PI3Kγ refer to the IC50 (μM), i.e. the amount necessary to achieve 50% inhibition of said target. Said values show a considerable potency of the azolidinone-vinyl fused-benzene compounds with regard to PI3Kγ.

[3] = in vivo; cited from earlier work
[4] = system: Class I PI3-kinases; conditions: read-out: IC50 against each of these PI3-kinases; cited from earlier work
[5] = system: neutrophil; conditions: cited from earlier work
[6] = system: phospholipases; conditions: cited from earlier work
[7] = target: CK2 protein kinase (Homo sapiens, UniProt P68400); conditions: cited from earlier work
Sequence of CK2 protein kinase (P68400 whole entry): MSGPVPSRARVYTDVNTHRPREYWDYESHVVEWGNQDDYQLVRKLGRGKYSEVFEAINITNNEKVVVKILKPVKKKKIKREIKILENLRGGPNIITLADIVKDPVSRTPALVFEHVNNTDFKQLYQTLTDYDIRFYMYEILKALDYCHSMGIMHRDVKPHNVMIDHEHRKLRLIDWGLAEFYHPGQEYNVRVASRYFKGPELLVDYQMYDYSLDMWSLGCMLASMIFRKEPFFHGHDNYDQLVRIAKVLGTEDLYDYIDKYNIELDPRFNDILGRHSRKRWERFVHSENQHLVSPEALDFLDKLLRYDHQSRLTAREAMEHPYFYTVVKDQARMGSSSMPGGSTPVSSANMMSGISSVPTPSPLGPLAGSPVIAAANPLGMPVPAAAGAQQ

SMILES | IC50 [2] | inhibition at 1 µM [1] | further results
O=C1NC(=O)/C(=C/c2ccc3c(c2)OCO3)S1 [Example 1, 5-(1,3-benzodioxol-5-ylmethylene)-1,3-thiazolidine-2,4-dione] |  | ~100% | 
O=C1NC(=O)C(=Cc2ccc3ncnc(N4CCCCC4)c3c2)S1 [Example 19, 5-[(4-piperidin-1-ylquinazolin-6-yl)methylene]-1,3-thiazolidine-2,4-dione] |  | ~100% | 
O=C1NC(=O)/C(=C/c2ccc3occ(/C=C/C(=O)N4CCCCC4)c3c2)S1 [Example 73, 5-[3-(3-Oxo-3-piperidin-1-yl-propenyl)-benzofuran-5-ylmethylene]-thiazolidine-2,4-dione] | < 1000 nM |  | 
O=C1NC(=O)/C(=C/c2ccc3c(c2)N(Cc2ccccc2)C(=O)CO3)S1 [Example 103, 5-(4-Benzyl-3-oxo-3,4-dihydro-2H-benzo[1,4]oxazin-6-ylmethylene)-thiazolidine-2,4-dione] | < 1000 nM |  | 
CC(C)(C)c1cc(/C=C2\SC(=N)NC2=O)cc2c1OCC2(C)C [JA] |  |  | activity in a paw swelling assay [3]: inactive
O=c1cc(N2CCOCC2)oc2c(-c3ccccc3)cccc12 [LY294002] |  |  | IC50 [4]: 15 to 20 µM; neutrophil migration [5]: block; superoxide release [5]: block; inhibitory activity on phospholipases [6]: some inhibitory activity; IC50 [7]: 5 to 10 µM

Second part, led by results:

IC50 [2] | SMILES | inhibition at 1 µM [1] | further results
< 1000 nM | N=C1NC(=O)/C(=C/c2ccc3ncnc(N4CCCCC4)c3c2)S1 [Example 41, 2-Imino-5-(4-piperidine-quinazolin-6-ylmethylene)-thiazolidin-4-one] |  | 
< 1000 nM | COc1ccccc1Cn1cnc2ccc(C=C3SC(=O)NC3=O)cc21 [Example 61, 5-{[1-(2-methoxybenzyl)-1H-benzimidazol-6-yl]methylene}-1,3-thiazolidine-2,4-dione] |  | 
< 1000 nM | N=C1NC(=O)/C(=C/c2ccc3nccnc3c2)S1 [Example 66, 2-Imino-5-quinoxalin-6-ylmethylene-thiazolidin-4-one] | ~100% | 
< 1000 nM | O=C1NC(=O)/C(=C/c2ccc3nsnc3c2)S1 [Example 107, 5-Benzo[1,2,5]thiadiazol-5-ylmethylene-thiazolidine-2,4-ione] | ~100% | 
< 1000 nM | COC(=O)c1cc2ccc(/C=C3\SC(=O)NC3=O)cc2o1 [Example 110, 5-(2-Carboxymethyl-benzofuran-6-ylmethylene)-thiazolidine-2,4-dione] |  | 
